Results taken from patent US20100189648A1, “INHIBITORS FOR DISRUPTING THE INTERACTION OF UBIQUITINATION RELATED ENZYMES AND USES THEREOF” (priority 2006, published 2010).

Legend:
Type in all cases: cell-based, human
U251 = assay: MTT survival assay, glioma cell line (brain tumor U251); settings: for IC50 (95% confidence level): Bliss method, unit not printed (concentrations in μg/ml)
Description: (§1) The effect of the above identified compounds on anti-tumor activity in human carcinoma cells was determined by the MTT survival assay. The MTT assay is a commonly used method in evaluation of cell survival, based on the ability of viable cells to convert MTT (MTT, Sigma, Cat No. 044K5307), a soluble tetrazolium salt [3-(4,5-dimethylthuazole-2-yl)-2,5 diphenyl tetrazolium bromide], into an insoluble formazan precipitate, which is quantitated by spectrophotometry following solubilization in dimethyl sulfoxide (DMSO).
(§2) In brief, different carcinoma cells were treated with negative control, various test articles at different concentration, and positive control (DDP), in 96-well tissue culture dishes. Each test article at different concentration is repeated 3 times.
(§3) Different carcinoma cells were diluted with 10% FBS and RPM1640 or MEM media to a concentration of 3-5×10^4 per ml suspension. 100 microliter of cells were incubated in each well in 96-well tissue culture dishes at 37 C. The cells were incubated at 37 C on the first day. On the second day, media supernatant was removed and replaced with media and different concentration of test articles (100 microliter in each well). Three Negative control wells and three positive control (DDP) wells were also included. The 96-well plate were incubated at 37 C for another 68 hours. After 68 hours, supernatant of each well was removed. 100 microliter of 1 mg/ml MTT diluted in PBS was injected into each well. The cells were incubated at 37 C for another 4 hours. The cells were then solubilized in 150 microliter DMSO, mixed for 10 minutes and absorbance readings were taken using Microplate reader Bio-Rad Model 550 at 570 nm. IR (cell growth inhibition rate) % was calculated as (OD570 of negative control-OD570 with test article)/OD570 of negative control. IC50 (cell 50% inhibition concentration) at 95% confidence level was calculated with Bliss method.

SMMC-7721 = assay: MTT survival assay, liver cancer cell line (SMMC-7721)
Description: as §1, §2, §3

A459 = assay: MTT survival assay, lung cancer cell line (A459); set-up: IC50 (95% confidence level), interval: unit not given beside the values; settings: for IC50 (95% confidence level), interval: 95% confidence limits of IC50; for IC50 (95% confidence level): Bliss method, unit not printed (concentrations in μg/ml)
Description: as §1, §2, §3

Hela cells = assay: MTT survival assay, cervical cancer line (Hela cells); set-up: IC50 (95% confidence level), interval: unit not given beside the values
Description: as §1, §2, §3

SKOV3 = assay: MTT survival assay, ovarian cancer cell line (SKOV3); settings: for IC50 (95% confidence level): Bliss method, unit not printed (concentrations in μg/ml)
Description: as §1, §2, §3

HCT116 = assay: MTT survival assay, colon cancer cell line (HCT116); set-up: IC50 (95% confidence level), interval: unit not given beside the values
Description: as §1, §2, §3

MCF-7 = assay: MTT survival assay, breast cancer cell line (MCF-7); set-up: IC50 (95% confidence level), interval: unit not given beside the values
Description: as §1, §2, §3

[1] = U251 (first table), 0.0625 μg/ml
[2] = U251 (second table), 0.0625 μg/ml
[3] = U251 (second table), 0.25 μg/ml
[4] = SMMC-7721 Experiment #2, 0.25 μg/ml
[5] = SMMC-7721 Experiment #2, 1 μg/ml
[6] = SMMC-7721 Experiment #2, 4 μg/ml
[7] = A459 Experiment #2, 0.0625 μg/ml
[8] = Bliss method, unit not printed (concentrations in μg/ml)
[9] = SKOV3 (first table), 0.0625 μg/ml
[10] = SKOV3 (first table), 0.25 μg/ml
[11] = SKOV3 (second table), 0.0625 μg/ml
[12] = SKOV3 (second table), 0.25 μg/ml

Structure (SMILES): N.N.[Cl][Pt][Cl] [DDP, cisplatin, reference compound]
- IR (%) (U251; [1]): 16.8%
- OD(A570 nm) (U251; [1]): 0.729 ± 0.090
- IR (%) (U251; U251 (first table), 0.25 μg/ml): 21.5%
- OD(A570 nm) (U251; U251 (first table), 0.25 μg/ml): 0.688 ± 0.035
- IR (%) (U251; U251 (first table), 1 μg/ml): 58.4%
- OD(A570 nm) (U251; U251 (first table), 1 μg/ml): 0.365 ± 0.058
- IR (%) (U251; U251 (first table), 4 μg/ml): 80.2%
- OD(A570 nm) (U251; U251 (first table), 4 μg/ml): 0.174 ± 0.009
- IC50 (95% confidence level) (U251; U251 (first table)): 1.13
- IR (%) (U251; [2]): 16.8%
- OD(A570 nm) (U251; [2]): 0.729 ± 0.090
- IR (%) (U251; [3]): 21.5%
- OD(A570 nm) (U251; [3]): 0.688 ± 0.035
- IR (%) (U251; U251 (second table), 1 μg/ml): 58.4%
- OD(A570 nm) (U251; U251 (second table), 1 μg/ml): 0.365 ± 0.058
- IR (%) (U251; U251 (second table), 4 μg/ml): 80.2%
- OD(A570 nm) (U251; U251 (second table), 4 μg/ml): 0.174 ± 0.009
- IC50 (95% confidence level) (U251; U251 (second table)): 1.13
- IR (%) (SMMC-7721; SMMC-7721, 0.0625 μg/ml): −29.4%
- OD(A570 nm) (SMMC-7721; SMMC-7721, 0.0625 μg/ml): 0.570 ± 0.166
- IR (%) (SMMC-7721; SMMC-7721, 0.25 μg/ml): 46.2%
- OD(A570 nm) (SMMC-7721; SMMC-7721, 0.25 μg/ml): 0.237 ± 0.020
- IR (%) (SMMC-7721; SMMC-7721, 1 μg/ml): 71.0%
- OD(A570 nm) (SMMC-7721; SMMC-7721, 1 μg/ml): 0.128 ± 0.011
- IR (%) (SMMC-7721; SMMC-7721, 4 μg/ml): 61.6%
- OD(A570 nm) (SMMC-7721; SMMC-7721, 4 μg/ml): 0.169 ± 0.022
- IR (%) (SMMC-7721; [4]): 24.5%
- OD(A570 nm) (SMMC-7721; [4]): 0.348 ± 0.045
- IR (%) (SMMC-7721; [5]): 43.1%
- OD(A570 nm) (SMMC-7721; [5]): 0.262 ± 0.020
- IR (%) (SMMC-7721; [6]): 47.0%
- OD(A570 nm) (SMMC-7721; [6]): 0.244 ± 0.155
- IC50 (95% confidence level), interval (SMMC-7721; SMMC-7721 Experiment #2, 95% confidence limits of IC50): 3.757-4.640
- IC50 (95% confidence level) (SMMC-7721; SMMC-7721 Experiment #2, Bliss method, unit not printed (concentrations in μg/ml)): 4.155
- IR (%) (A459; A459, 0.0625 μg/ml): 23.9%
- OD(A570 nm) (A459; A459, 0.0625 μg/ml): 0.485 ± 0.046
- IR (%) (A459; A459, 0.25 μg/ml): 18.8%
- OD(A570 nm) (A459; A459, 0.25 μg/ml): 0.517 ± 0.073
- IR (%) (A459; A459, 1 μg/ml): 46.4%
- OD(A570 nm) (A459; A459, 1 μg/ml): 0.341 ± 0.060
- IR (%) (A459; A459, 4 μg/ml): 71.0%
- IC50 (95% confidence level), interval (A459; A459): 1.113-1.213
- IC50 (95% confidence level) (A459; A459): 1.162
- IR (%) (A459; [7]): 23.9%
- OD(A570 nm) (A459; [7]): 0.485 ± 0.046
- IR (%) (A459; A459 Experiment #2, 0.25 μg/ml): 18.8%
- OD(A570 nm) (A459; A459 Experiment #2, 0.25 μg/ml): 0.517 ± 0.073
- IR (%) (A459; A459 Experiment #2, 1 μg/ml): 46.4%
- OD(A570 nm) (A459; A459 Experiment #2, 1 μg/ml): 0.341 ± 0.060
- IR (%) (A459; A459 Experiment #2, 4 μg/ml): 71.0%
- IC50 (95% confidence level), interval (A459; A459 Experiment #2): 1.114-1.213
- IC50 (95% confidence level) (A459; A459 Experiment #2): 1.162
- IR (%) (Hela cells; 0.0625 μg/ml): 35.3%
- OD(A570 nm) (Hela cells; 0.0625 μg/ml): 0.481 ± 0.081
- IR (%) (Hela cells; 0.25 μg/ml): 72.2%
- OD(A570 nm) (Hela cells; 0.25 μg/ml): 0.206 ± 0.014
- IR (%) (Hela cells; 1 μg/ml): 83.4%
- OD(A570 nm) (Hela cells; 1 μg/ml): 0.123 ± 0.007
- IR (%) (Hela cells; 4 μg/ml): 89.5%
- OD(A570 nm) (Hela cells; 4 μg/ml): 0.078 ± 0.001
- IC50 (95% confidence level), interval (Hela cells; 95% confidence limits of IC50): 0.062-0.156
- IC50 (95% confidence level) (Hela cells; [8]): 0.105
- IR (%) (SKOV3; [9]): 1.6%
- OD(A570 nm) (SKOV3; [9]): 0.689 ± 0.065
- IR (%) (SKOV3; [10]): 8.3%
- OD(A570 nm) (SKOV3; [10]): 0.643 ± 0.141
- IR (%) (SKOV3; SKOV3 (first table), 1 μg/ml): 62.0%
- OD(A570 nm) (SKOV3; SKOV3 (first table), 1 μg/ml): 0.267 ± 0.044
- IR (%) (SKOV3; SKOV3 (first table), 4 μg/ml): 88.2%
- OD(A570 nm) (SKOV3; SKOV3 (first table), 4 μg/ml): 0.083 ± 0.002
- IC50 (95% confidence level) (SKOV3; SKOV3 (first table)): 0.89
- IR (%) (SKOV3; [11]): 1.6%
- OD(A570 nm) (SKOV3; [11]): 0.689 ± 0.065
- IR (%) (SKOV3; [12]): 8.3%
- OD(A570 nm) (SKOV3; [12]): 0.643 ± 0.141
- IR (%) (SKOV3; SKOV3 (second table), 1 μg/ml): 62.0%
- OD(A570 nm) (SKOV3; SKOV3 (second table), 1 μg/ml): 0.267 ± 0.044
- IR (%) (SKOV3; SKOV3 (second table), 4 μg/ml): 88.2%
- OD(A570 nm) (SKOV3; SKOV3 (second table), 4 μg/ml): 0.083 ± 0.002
- IC50 (95% confidence level) (SKOV3; SKOV3 (second table)): 0.89
- IR (%) (HCT116; 0.25 μg/ml): 51.0%
- OD(A570 nm) (HCT116; 0.25 μg/ml): 0.266 ± 0.016
- IR (%) (HCT116; 1 μg/ml): 62.9%
- OD(A570 nm) (HCT116; 1 μg/ml): 0.201 ± 0.060
- IR (%) (HCT116; 4 μg/ml): 75.5%
- OD(A570 nm) (HCT116; 4 μg/ml): 0.133 ± 0.016
- IC50 (95% confidence level), interval (HCT116; 95% confidence limits of IC50): 0.211-0.257
- IC50 (95% confidence level) (HCT116; [8]): 0.234
- IR (%) (MCF-7; 0.0625 μg/ml): 12.8%
- OD(A570 nm) (MCF-7; 0.0625 μg/ml): 0.787 ± 0.005
- IR (%) (MCF-7; 0.25 μg/ml): 2.6%
- OD(A570 nm) (MCF-7; 0.25 μg/ml): 0.879 ± 0.059
- IR (%) (MCF-7; 1 μg/ml): 83.3%
- OD(A570 nm) (MCF-7; 1 μg/ml): 0.151 ± 0.011
- IR (%) (MCF-7; 4 μg/ml): 88.2%
- OD(A570 nm) (MCF-7; 4 μg/ml): 0.107 ± 0.007
- IC50 (95% confidence level), interval (MCF-7; 95% confidence limits of IC50): 0.483-0.737
- IC50 (95% confidence level) (MCF-7; [8]): 0.596
